Measured values as given in paper PMC4979471 (Cell Death Discovery, 2015).
Where two headings read alike, the source gives them in different places.

How the values were obtained:
Assay in all cases: Kinase selectivity, P33-radiolabeled assay
Type in all cases: biochemical
Conditions in all cases: 10 μM ATP
[1] = biological target: T1, MARK3 (Homo sapiens, UniProt P27448)
T1 construct: purchased Reaction Biology Corp
Method in brief: (§1)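 Duplicate single-concentration testing used 10 μM compound. The ATP concentration was also 10 μM.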

[2] = biological target: T2, PKCb1 (Homo sapiens, UniProt P05771)
T2 construct: purchased Reaction Biology Corp
Method in brief: as §1

[3] = biological target: T3, MST4 (Homo sapiens, UniProt Q9P289)
T3 construct: purchased Reaction Biology Corp
Method in brief: as §1

[4] = biological target: T4, c-Src (Homo sapiens, UniProt P12931)
T4 construct: purchased Reaction Biology Corp
Method in brief: as §1

[5] = biological target: T5, ERK2/MAPK1 (Homo sapiens, UniProt P28482)
T5 construct: purchased Reaction Biology Corp
Method in brief: as §1

[6] = biological target: T6, CK1d (Homo sapiens, UniProt P48730)
T6 construct: purchased Reaction Biology Corp
Method in brief: as §1

[7] = biological target: T7, DYRK4 (Homo sapiens, UniProt Q9NR20)
T7 construct: purchased Reaction Biology Corp
T7 sequence (Q9NR20 1-520): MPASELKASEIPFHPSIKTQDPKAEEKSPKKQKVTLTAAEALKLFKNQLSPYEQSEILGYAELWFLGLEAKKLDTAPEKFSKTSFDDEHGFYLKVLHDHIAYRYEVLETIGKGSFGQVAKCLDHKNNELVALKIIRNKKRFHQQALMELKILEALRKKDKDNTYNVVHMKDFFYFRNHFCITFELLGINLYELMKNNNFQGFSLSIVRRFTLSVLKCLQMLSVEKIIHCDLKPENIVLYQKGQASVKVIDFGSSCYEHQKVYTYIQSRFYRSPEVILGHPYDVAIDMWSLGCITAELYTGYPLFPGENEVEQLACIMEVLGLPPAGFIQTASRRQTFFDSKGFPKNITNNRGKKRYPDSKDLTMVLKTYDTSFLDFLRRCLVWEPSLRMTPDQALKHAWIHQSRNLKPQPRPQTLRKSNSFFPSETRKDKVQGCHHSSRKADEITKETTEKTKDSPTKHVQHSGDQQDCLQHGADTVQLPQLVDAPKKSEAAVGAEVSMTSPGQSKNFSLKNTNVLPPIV
Method in brief: as §1

[8] = biological target: T8, NLK (Homo sapiens, UniProt Q9UBE8)
T8 construct: purchased Reaction Biology Corp
T8 sequence (Q9UBE8 1-527): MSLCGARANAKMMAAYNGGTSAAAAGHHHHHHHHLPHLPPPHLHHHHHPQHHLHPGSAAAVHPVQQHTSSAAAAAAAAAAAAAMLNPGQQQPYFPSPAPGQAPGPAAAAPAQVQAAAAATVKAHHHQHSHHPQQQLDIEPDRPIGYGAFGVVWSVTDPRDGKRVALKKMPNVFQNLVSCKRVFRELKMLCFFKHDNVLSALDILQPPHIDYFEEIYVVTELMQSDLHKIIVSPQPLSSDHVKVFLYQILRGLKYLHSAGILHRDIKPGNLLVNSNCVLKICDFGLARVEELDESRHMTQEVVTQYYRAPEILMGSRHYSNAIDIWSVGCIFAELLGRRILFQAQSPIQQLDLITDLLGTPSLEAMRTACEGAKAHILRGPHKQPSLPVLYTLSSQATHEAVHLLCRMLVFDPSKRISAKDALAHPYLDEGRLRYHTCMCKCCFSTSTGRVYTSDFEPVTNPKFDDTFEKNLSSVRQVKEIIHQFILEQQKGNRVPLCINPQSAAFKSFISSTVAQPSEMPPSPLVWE
Method in brief: as §1

[9] = biological target: T9, CAMKK2 (Homo sapiens, UniProt Q96RR4)
T9 construct: purchased Reaction Biology Corp
Method in brief: as §1

[10] = biological target: T10, EPHA2 (Homo sapiens, UniProt P29317)
T10 construct: purchased Reaction Biology Corp
Method in brief: as §1

[11] = biological target: T11, TRKA (Homo sapiens, UniProt P04629)
T11 construct: purchased Reaction Biology Corp
Method in brief: as §1

[12] = biological target: T12, MRCKa/CDC42BPA (Homo sapiens, UniProt Q5VT25)
T12 construct: purchased Reaction Biology Corp
Method in brief: as §1

[13] = biological target: T13, FGFR2 (Homo sapiens, UniProt P21802)
T13 construct: purchased Reaction Biology Corp
Method in brief: as §1

[14] = read-out: % Enzyme Activity (relative to DMSO controls) AVG
[15] = read-out: % Enzyme Activity (relative to DMSO controls) Data 1
[16] = read-out: % Enzyme Activity (relative to DMSO controls) Data 2

T6 sequence (P48730 whole entry): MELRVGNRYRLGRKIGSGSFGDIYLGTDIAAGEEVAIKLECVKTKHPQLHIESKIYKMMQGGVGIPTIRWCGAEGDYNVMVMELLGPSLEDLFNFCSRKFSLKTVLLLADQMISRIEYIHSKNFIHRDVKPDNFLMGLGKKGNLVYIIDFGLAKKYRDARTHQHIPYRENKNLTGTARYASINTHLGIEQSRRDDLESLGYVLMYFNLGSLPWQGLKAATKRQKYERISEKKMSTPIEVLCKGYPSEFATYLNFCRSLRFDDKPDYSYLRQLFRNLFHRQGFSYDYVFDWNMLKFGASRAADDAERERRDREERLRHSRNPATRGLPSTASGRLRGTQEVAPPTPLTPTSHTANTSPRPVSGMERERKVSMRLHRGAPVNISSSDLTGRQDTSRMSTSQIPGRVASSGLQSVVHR
T9 sequence (Q96RR4 whole entry): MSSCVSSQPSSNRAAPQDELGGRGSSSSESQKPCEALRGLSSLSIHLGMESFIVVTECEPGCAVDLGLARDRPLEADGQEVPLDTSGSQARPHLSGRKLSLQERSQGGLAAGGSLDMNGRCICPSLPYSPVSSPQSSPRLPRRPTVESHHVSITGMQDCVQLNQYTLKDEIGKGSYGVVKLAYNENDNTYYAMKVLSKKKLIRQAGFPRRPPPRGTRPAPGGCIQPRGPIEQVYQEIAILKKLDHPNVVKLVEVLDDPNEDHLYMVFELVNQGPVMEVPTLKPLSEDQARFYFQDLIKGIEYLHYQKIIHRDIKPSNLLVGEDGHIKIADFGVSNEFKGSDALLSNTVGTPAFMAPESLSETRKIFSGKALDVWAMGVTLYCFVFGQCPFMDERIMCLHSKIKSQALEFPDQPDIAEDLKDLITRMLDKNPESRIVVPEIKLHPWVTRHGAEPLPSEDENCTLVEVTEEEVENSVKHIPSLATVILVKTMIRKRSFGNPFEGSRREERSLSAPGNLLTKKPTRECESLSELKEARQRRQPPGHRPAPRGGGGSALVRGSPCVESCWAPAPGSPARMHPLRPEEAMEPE
T12 sequence (Q5VT25 whole entry): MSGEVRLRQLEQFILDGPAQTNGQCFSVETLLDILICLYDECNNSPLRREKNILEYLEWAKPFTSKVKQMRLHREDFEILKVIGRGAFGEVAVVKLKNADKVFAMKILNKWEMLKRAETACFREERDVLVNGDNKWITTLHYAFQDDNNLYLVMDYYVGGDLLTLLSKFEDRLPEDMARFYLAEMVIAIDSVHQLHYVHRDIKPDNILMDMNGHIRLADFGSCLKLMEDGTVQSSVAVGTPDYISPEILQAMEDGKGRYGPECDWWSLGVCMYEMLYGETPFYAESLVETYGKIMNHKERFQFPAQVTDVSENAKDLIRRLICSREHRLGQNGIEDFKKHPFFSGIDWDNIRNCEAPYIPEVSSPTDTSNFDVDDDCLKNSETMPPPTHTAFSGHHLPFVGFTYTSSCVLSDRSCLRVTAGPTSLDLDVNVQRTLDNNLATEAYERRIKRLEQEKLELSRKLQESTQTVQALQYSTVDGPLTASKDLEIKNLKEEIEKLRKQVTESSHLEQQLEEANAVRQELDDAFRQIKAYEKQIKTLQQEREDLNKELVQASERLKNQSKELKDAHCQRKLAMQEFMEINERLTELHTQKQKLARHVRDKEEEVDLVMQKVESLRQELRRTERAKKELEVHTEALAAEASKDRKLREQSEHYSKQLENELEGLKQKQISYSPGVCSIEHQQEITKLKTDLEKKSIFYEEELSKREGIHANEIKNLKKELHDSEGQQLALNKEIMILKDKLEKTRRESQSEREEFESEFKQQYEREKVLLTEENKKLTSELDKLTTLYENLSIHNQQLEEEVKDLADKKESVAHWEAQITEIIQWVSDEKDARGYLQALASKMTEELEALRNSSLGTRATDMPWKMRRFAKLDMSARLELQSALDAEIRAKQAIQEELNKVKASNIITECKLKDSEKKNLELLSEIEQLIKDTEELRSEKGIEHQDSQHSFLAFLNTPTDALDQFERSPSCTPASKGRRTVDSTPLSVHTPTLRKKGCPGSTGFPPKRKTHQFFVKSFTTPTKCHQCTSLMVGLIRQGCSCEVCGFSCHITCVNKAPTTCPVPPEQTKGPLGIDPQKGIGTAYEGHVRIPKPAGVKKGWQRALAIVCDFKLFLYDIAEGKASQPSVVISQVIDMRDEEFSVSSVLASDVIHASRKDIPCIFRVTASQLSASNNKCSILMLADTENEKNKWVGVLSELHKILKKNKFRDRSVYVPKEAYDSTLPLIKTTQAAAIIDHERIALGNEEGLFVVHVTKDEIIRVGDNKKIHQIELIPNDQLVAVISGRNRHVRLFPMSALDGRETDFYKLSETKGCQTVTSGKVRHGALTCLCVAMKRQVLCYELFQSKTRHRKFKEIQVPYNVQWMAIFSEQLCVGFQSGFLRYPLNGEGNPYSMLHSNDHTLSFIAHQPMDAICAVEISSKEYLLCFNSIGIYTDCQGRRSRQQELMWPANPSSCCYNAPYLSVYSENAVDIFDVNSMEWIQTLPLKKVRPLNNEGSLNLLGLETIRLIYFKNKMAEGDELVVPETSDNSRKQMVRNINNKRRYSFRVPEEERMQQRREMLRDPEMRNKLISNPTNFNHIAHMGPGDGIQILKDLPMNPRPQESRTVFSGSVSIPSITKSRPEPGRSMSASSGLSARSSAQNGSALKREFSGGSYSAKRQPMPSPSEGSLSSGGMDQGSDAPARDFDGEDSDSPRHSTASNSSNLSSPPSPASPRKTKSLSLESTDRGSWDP
T11 sequence (P04629 33-796): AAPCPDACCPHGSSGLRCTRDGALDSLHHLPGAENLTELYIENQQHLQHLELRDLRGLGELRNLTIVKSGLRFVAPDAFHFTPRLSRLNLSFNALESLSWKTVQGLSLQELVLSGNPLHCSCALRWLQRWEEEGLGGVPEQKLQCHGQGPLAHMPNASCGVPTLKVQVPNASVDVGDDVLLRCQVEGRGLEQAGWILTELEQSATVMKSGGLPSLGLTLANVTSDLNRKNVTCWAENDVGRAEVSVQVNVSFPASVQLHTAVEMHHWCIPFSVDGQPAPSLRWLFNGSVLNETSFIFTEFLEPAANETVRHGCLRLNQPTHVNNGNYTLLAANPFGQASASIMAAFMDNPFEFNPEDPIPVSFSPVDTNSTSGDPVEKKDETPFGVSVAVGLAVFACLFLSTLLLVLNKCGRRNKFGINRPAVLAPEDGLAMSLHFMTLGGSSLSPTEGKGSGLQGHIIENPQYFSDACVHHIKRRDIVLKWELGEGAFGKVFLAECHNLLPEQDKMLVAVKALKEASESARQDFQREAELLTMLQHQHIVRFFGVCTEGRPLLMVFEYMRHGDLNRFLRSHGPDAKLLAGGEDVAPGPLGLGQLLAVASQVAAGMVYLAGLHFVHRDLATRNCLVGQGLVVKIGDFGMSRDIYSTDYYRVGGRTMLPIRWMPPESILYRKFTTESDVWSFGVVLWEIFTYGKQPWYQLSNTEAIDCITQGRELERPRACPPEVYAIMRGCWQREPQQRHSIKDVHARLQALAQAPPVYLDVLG
T2 sequence (P05771 whole entry): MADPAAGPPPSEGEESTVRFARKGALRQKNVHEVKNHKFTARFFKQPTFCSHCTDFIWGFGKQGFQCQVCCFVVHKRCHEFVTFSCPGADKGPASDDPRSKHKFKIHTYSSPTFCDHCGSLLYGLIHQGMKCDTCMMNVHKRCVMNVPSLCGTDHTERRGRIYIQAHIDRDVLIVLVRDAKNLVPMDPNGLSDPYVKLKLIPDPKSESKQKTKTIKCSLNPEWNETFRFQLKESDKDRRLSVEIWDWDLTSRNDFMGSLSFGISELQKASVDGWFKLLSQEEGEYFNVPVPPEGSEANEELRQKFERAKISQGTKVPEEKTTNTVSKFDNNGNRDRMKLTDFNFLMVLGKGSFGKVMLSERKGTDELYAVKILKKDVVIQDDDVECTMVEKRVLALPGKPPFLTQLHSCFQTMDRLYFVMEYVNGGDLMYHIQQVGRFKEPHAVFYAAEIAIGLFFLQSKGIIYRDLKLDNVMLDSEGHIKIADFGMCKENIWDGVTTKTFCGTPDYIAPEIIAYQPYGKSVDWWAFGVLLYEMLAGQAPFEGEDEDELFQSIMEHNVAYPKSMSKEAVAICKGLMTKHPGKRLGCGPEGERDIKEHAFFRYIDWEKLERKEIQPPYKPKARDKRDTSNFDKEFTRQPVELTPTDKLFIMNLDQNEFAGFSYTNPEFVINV
T13 sequence (P21802 22-821): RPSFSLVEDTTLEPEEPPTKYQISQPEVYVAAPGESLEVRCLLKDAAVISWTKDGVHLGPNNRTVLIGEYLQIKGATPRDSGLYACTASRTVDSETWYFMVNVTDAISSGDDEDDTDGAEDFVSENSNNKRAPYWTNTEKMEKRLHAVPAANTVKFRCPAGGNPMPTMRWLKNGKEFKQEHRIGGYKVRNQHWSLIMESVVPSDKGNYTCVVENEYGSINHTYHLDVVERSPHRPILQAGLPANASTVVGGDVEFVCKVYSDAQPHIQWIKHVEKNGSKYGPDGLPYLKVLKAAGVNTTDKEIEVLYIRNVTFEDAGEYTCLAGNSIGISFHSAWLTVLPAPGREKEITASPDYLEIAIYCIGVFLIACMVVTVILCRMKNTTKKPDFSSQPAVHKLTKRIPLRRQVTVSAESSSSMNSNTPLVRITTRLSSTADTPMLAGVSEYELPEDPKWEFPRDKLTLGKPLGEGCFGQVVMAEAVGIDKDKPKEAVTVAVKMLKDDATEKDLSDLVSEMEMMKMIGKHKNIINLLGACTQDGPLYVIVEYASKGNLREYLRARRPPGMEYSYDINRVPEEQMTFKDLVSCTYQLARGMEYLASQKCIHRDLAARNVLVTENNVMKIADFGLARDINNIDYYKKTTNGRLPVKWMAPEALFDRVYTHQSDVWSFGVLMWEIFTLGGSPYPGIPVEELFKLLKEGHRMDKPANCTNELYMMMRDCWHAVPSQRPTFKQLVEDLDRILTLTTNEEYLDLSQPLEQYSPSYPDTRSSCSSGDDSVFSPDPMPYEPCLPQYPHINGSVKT

Molecule `CC(C)(C)C(=O)N1N=CC[C@H]1c1ccccc1` [GSK′963] has a remaining activity at 10 µM [1, 14] of 100%, a remaining activity at 10 µM [1, 15] of 102% and a remaining activity at 10 µM [1, 16] of 98.3%. For the same molecule, the remaining activity at 10 µM [2, 14] was 97.8%, the remaining activity at 10 µM [2, 15] was 96.7% and the remaining activity at 10 µM [2, 16] was 98.9%. For the same molecule, the remaining activity at 10 µM [3, 14] was 104%, the remaining activity at 10 µM [3, 15] was 103% and the remaining activity at 10 µM [3, 16] was 105%. It also gave a remaining activity at 10 µM [4, 14] of 109%, a remaining activity at 10 µM [4, 15] of 112% and a remaining activity at 10 µM [4, 16] of 106%. The remaining activity at 10 µM [5, 14] was 97.5%, the remaining activity at 10 µM [5, 15] was 96.5% and the remaining activity at 10 µM [5, 16] was 98.5%. For the same molecule, the remaining activity at 10 µM [6, 14] was 96.7%, the remaining activity at 10 µM [6, 15] was 94.1% and the remaining activity at 10 µM [6, 16] was 99.2%. It also gave a remaining activity at 10 µM [7, 14] of 101%, a remaining activity at 10 µM [7, 15] of 101% and a remaining activity at 10 µM [7, 16] of 101%. It also gave a remaining activity at 10 µM [8, 14] of 112%, a remaining activity at 10 µM [8, 15] of 111% and a remaining activity at 10 µM [8, 16] of 112%. It also gave a remaining activity at 10 µM [9, 14] of 83%, a remaining activity at 10 µM [9, 15] of 86.1% and a remaining activity at 10 µM [9, 16] of 80%. The remaining activity at 10 µM [10, 14] was 96.3%, the remaining activity at 10 µM [10, 15] was 95.6% and the remaining activity at 10 µM [10, 16] was 97%. It also gave a remaining activity at 10 µM [11, 14] of 99.8%, a remaining activity at 10 µM [11, 15] of 98.2% and a remaining activity at 10 µM [11, 16] of 101%. For the same molecule, the remaining activity at 10 µM [12, 14] was 111%, the remaining activity at 10 µM [12, 15] was 110% and the remaining activity at 10 µM [12, 16] was 112%. It also gave a remaining activity at 10 µM [13, 14] of 110%, a remaining activity at 10 µM [13, 15] of 108% and a remaining activity at 10 µM [13, 16] of 112%.
